Test results as given in ChEMBL document CHEMBL1201862, “PubChem BioAssay data set” (2004).
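These data come from cells grown in 96-well plates and exposed to compound for 48 hours at five concentrations. GI50 = concentration required for 50% inhibition of growth.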 Activity calls are given as the source filed them. No stated cut-off is given here; in the data, active = GI50 up to about 1.1 µM and inactive = higher.

Experiments:
Experiment in all cases: DTP human tumour cell line panel, 48 h
A498 = system: A498
CAKI-1 = system: CAKI-1
DLD-1 = system: DLD-1
EKVX = system: EKVX
HOP-62 = system: HOP-62
HT-29 = system: HT-29
IGROV-1 = system: IGROV-1
LXFL 529 = system: LXFL 529
MOLT-4 = system: MOLT-4
NCI-H226 = system: NCI-H226
OVCAR-8 = system: OVCAR-8
RXF 393 = system: RXF 393
SF-268 = system: SF-268
SF-539 = system: SF-539
SK-MEL-2 = system: SK-MEL-2
DMS-273 = system: DMS-273
HCT-15 = system: HCT-15
UACC-62 = system: UACC-62
MCF7 = system: MCF7
PC-3 = system: PC-3

Compound | GI50 (A498) | GI50 (CAKI-1) | GI50 (DLD-1) | GI50 (EKVX) | GI50 (HOP-62) | GI50 (HT-29) | GI50 (IGROV-1) | GI50 (LXFL 529) | GI50 (MOLT-4) | GI50 (NCI-H226) | GI50 (OVCAR-8) | GI50 (RXF 393) | GI50 (SF-268) | GI50 (SF-539) | GI50 (SK-MEL-2) | GI50 (DMS-273) | GI50 (HCT-15) | GI50 (UACC-62) | GI50 (MCF7) | GI50 (PC-3)
CC1=C(C(=O)Nc2cccc(C(F)(F)F)c2)C(c2ccc(O)cc2)C(C(=O)Nc2cccc(C(F)(F)F)c2)=C(C)N1 | 17.5 µM (inactive) | 11.6 µM (inactive) | 20.5 µM (inactive) | 18.1 µM (inactive) | 19.5 µM (inactive) | 16 µM (inactive) | 15.6 µM (inactive) | 18.6 µM (inactive) | 7.98 µM (inactive) | 17.3 µM (inactive) | 23.2 µM (inactive) | 10.1 µM (inactive) | 26.5 µM (inactive) | 26.5 µM (inactive) | 17.3 µM (inactive) | – | – | – | – | –
CCC(CC)NC1=C(NC(C)=O)C(=O)c2ccccc2C1=O | – | – | > 50 µM (inactive) | > 50 µM (inactive) | > 50 µM (inactive) | > 50 µM (inactive) | > 50 µM (inactive) | > 50 µM (inactive) | > 50 µM (inactive) | > 50 µM (inactive) | > 50 µM (inactive) | > 50 µM (inactive) | > 50 µM (inactive) | > 50 µM (inactive) | > 50 µM (inactive) | > 50 µM (inactive) | > 50 µM | > 50 µM (inactive) | – | –
C=CCCC(C)N(C(=O)OC(C)(C)C)S(=O)(=O)c1ccc(C)cc1 (centres undefined) | – | > 100 µM (inactive) | > 100 µM (inactive) | – | > 100 µM (inactive) | > 100 µM (inactive) | > 100 µM (inactive) | > 100 µM (inactive) | 97.1 µM (inactive) | > 100 µM (inactive) | > 100 µM (inactive) | – | > 100 µM (inactive) | > 100 µM (inactive) | > 100 µM (inactive) | > 100 µM (inactive) | > 100 µM | 77.4 µM (inactive) | – | –
CC1OC(=O)C(O)=C1O (centres undefined) | – | > 100 µM (inactive) | – | > 100 µM (inactive) | > 100 µM (inactive) | > 100 µM (inactive) | > 100 µM (inactive) | > 100 µM (inactive) | > 100 µM (inactive) | > 100 µM (inactive) | > 100 µM (inactive) | > 100 µM (inactive) | 47.2 µM (inactive) | > 100 µM (inactive) | > 100 µM (inactive) | > 100 µM (inactive) | > 100 µM | > 100 µM (inactive) | – | –
CCOC(=O)/C(=C/c1ccc(N(C)C)cc1)N(CC)CC | – | > 100 µM (inactive) | – | 35.2 µM (inactive) | > 100 µM (inactive) | – | > 100 µM (inactive) | 34.6 µM (inactive) | 32.2 µM (inactive) | 21.1 µM (inactive) | > 100 µM (inactive) | – | 76.6 µM (inactive) | > 100 µM (inactive) | 58.2 µM (inactive) | – | 40.3 µM | 74.5 µM (inactive) | – | –
O=C1NC(=O)C(C(=O)C(=O)Nc2cc(Cl)ccc2Cl)C(=O)N1 | > 100 µM (inactive) | – | > 100 µM (inactive) | > 100 µM (inactive) | > 100 µM (inactive) | – | > 100 µM (inactive) | > 100 µM (inactive) | > 100 µM (inactive) | – | > 100 µM (inactive) | > 100 µM (inactive) | > 100 µM (inactive) | > 100 µM (inactive) | > 100 µM (inactive) | – | > 100 µM | > 100 µM (inactive) | – | –
COC(=O)C1=C(C)N(NC(=O)Nc2ccccc2)C2(N)N(NC(=O)Nc3ccccc3)C(C)=C(C(=O)OC)C12C(=O)OC (centres undefined) | 59.6 µM (inactive) | 23.7 µM (inactive) | 55.7 µM (inactive) | – | – | 65.2 µM (inactive) | 24.5 µM (inactive) | 62.5 µM (inactive) | 27.1 µM (inactive) | 60.4 µM (inactive) | 71 µM (inactive) | 75.9 µM (inactive) | > 100 µM (inactive) | – | 36 µM (inactive) | 40.3 µM (inactive) | 76.4 µM | 41.3 µM (inactive) | – | –
O=C(Nc1ccccc1SC(/C=C/NNC1=NN=C(c2ccccc2)C(c2ccccc2)N1)c1ccccc1)c1ccc(Cl)cc1Cl (centres undefined) | 43.5 µM (inactive) | – | 49.2 µM (inactive) | 37.8 µM (inactive) | 27.3 µM (inactive) | > 100 µM (inactive) | 50 µM (inactive) | – | > 10 µM (inactive) | 31.4 µM (inactive) | 74.5 µM (inactive) | 40.7 µM (inactive) | 35.6 µM (inactive) | 23.3 µM (inactive) | 20.9 µM (inactive) | 41.6 µM (inactive) | 36 µM | 36.8 µM (inactive) | – | –
CC1(C)N=C(N)N=C(N)N1c1ccc(CCCCc2ccc(S(=O)(=O)F)cc2Cl)c(Cl)c1 | 37.2 µM (inactive) | 9.55 µM (inactive) | 1.57 µM (inactive) | 36.2 µM (inactive) | 9.35 µM (inactive) | 1.53 µM (inactive) | 0.39 µM (active) | – | 0.995 µM (active) | 18.5 µM (inactive) | 4.46 µM (inactive) | 14.2 µM (inactive) | 0.984 µM (active) | 1.67 µM (inactive) | 8.34 µM (inactive) | 0.352 µM (active) | 2.72 µM | 0.258 µM (active) | 2.39 µM (inactive) | 1.11 µM (active)
